Source: patent EP0208962B1, “Combination preparations from thrombocyte aggregation inhibitors, and their use” (HOECHST AKTIENGESELLSCHAFT, priority 1985, dated 1987)
“Also recorded” adds a separate entry of the source.

Tests used:
[1] = test system: Humanthrombozyten; assay: Cyclo AMP determination in human platelets (Method 3, 3H-adenine labelling); type: cell-based; conditions: result in words
Description: Methode 3 - Cyclo AMP-Bestimmung in Humanthrombozyten
Die Methode folgt in allen Einzelheiten der Vorschrift in Nature (London) 292 (1981) 364: Statt Kaninchenthrombozyten wurde jedoch menschliches Thrombozytenkonzentrat mit ³H-Adenin bei 20°C für 90 min inkubiert. Das überschüssige Adenin wird, wie in Nature beschrieben, entfernt, die Wirkstoffe (s. Tab. 2) zugesetzt und erneut 5 min (37°C) inkubiert. Das gebildete ³H-cyclo AMP wird in der bekannten Weise abgetrennt und durch Radioaktivitätsmessung quantifiziert.

[2] = test system: Humanthrombozyten; assay: Induced aggregation of human platelets in vitro (Method 1, platelet-rich plasma, Born aggregometer); type: cell-based; conditions: result in words; Tilsuprost compared with Prostacyclin
Excerpt: Methode 1 - Induzierte Aggregation von Humanthrombozyten in vitro
Gesund erscheinenden männlichen und weiblichen Freiwilligen, die im vorangegangenen Zeitraum von 10 Tagen keine Medikamente eingenommen haben, wird durch vorsichtige Kanülierung der Antekubitalvene Blut entnommen, das sofort mit Natriumzitrat (ad 0,38%) stabilisiert wird. Durch 15minütiges Zentrifugieren bei 140 x g erhält man im Überstand plättchenreiches Plasma (PRP), dessen Thrombozytengehalt im Bereich 2,5 - 3,5·10⁺⁸ /ml (Coulter Counter) liegen soll. Die Plättchenaggregation wird optisch durch Messung der Lichttransmission im Born'schen Aggregometer verfolgt. Das Gesamtvolumen des Testansatzes beträgt 0,25 ml. Die Vorinkubationszeit mit dem Prüfpräparat beträgt 10 min bei 37°C, die Aggregationsinduktion erfolgt sodann mit 2 · 10⁻⁴ mol/l Arachidonsäure oder 1,7 µg/ml Kollagen. Das Prüfpräparat wird an fünf verschiedenen Spendern getestet. Aus den jeweiligen maximalen Aggregationsamplituden werden Dosis-Wirkungskurven erstellt und graphisch die arithmetisch gemittelten ED₅₀ (mol/l)-Werte bestimmt. Die Messungen erfolgen im Zeitraum von 1-6 Stunden nach Blutentnahme.

Row | Compound | cyclo AMP-Stimulierung in Humanthrombozyten [1] | Hemmstoffe der Aggregation von Humanthrombozyten [2]
1 | CCCCCC(O)C=CC1C(O)CC2N=C(SCCCCC(=O)O)CC21 (stereo not drawn) [Tilsuprost] | keine signifikante Stimulierung; also recorded: keine signifikante stimulierende Wirkung | äquipotent
2 | CCCCC[C@H](O)/C=C/[C@@H]1[C@H]2C/C(=C/CCCC(=O)O)O[C@H]2C[C@H]1O [Prostacyclin, reference compound] | – | äquipotent
